Assay results reported in paper PMC11487760, “Cross-Species Applications of Peptide Substrate Reporters to Quantitative Measurements of Kinase Activity” (ACS Measurement Science Au, 2024).
Non-standard residues stand in square brackets, D forms with d. Residues, ends and D or L forms follow the SMILES beside them. *: point of attachment. 5FAM = O=C1OC2(c3ccc(O)cc3Oc3cc(O)ccc32)c2ccc(C(=O)*)cc21; 6FAM = O=C1OC2(c3ccc(O)cc3Oc3cc(O)ccc32)c2cc(C(=O)*)ccc21; NMeR = CN[C@@H](CCCNC(=N)N)C(=O)O; NMeA = CN[C@@H](C)C(=O)O

Experiments:
[1] = Degradation assay in freeze-thaw lysates, T. thermophila B2086.2; assay type: in vitro ADME; conditions: freeze–thaw lysate of vegetative T. thermophila B2086.2 cells, 3 mg/mL total protein in PBS, no protease inhibitors, 10 μM reporter, 25 °C, CE-LIF, first-order fit, ± SD, 3 biological replicates
Description: (§1) Degradation assays were conducted as described previously.[38] Briefly, aliquots of vegetative cells were washed twice, resuspended in ice-cold phosphate buffered saline at a density of 2 × 10^8 cells/mL and lysed by three freeze–thaw cycles using liquid nitrogen. The resulting lysate was clarified by 5 min centrifugation at 15,000 × g, and the supernatant was stored at −80 °C. The total protein concentration was determined using a fluorescamine assay with a bovine serum albumin (BSA) calibration curve.[39] Briefly, three parts diluted lysate (or BSA standard) in 30 mM borate buffer (pH 9) and one part 3 mg/mL fluorescamine in acetone were incubated for 5 min in the dark at room temperature. The fluorescence at 475 nm was then measured using 390 nm excitation. Based on this assay, the lysate was diluted to a concentration of 3 mg/mL in phosphate buffered saline. The degradation reaction was run at 25 °C and initiated by addition of 10 μM reporter to the diluted lysate. At fixed time points, aliquots were removed, and the reaction was stopped by incubation for 4 min at 95 °C.
(§2) To study degradation kinetics, we fit the data for each full-length peptide to a first-order reaction model and determined the half-life for each peptide for three biological replicates (Figure 5b-d, Table 3). Degradation rates and half-lives varied widely between organisms and peptides; however, some general trends were apparent. For all peptides, degradation was much faster in T. thermophila than in D. discoideum. T. thermophila is known to produce and secrete cysteine proteases and is a large ([…]), fast-growing cell. […] Further characterization of protease expression in these strains may be helpful identifying the enzyme(s) primarily responsible for degradation of these reporters.

[2] = Degradation assay in freeze-thaw lysates, D. discoideum; assay type: in vitro ADME; conditions: 10 μM reporter, 25 °C, CE-LIF
Description: as §1, §2

[3] = test system: PKBA; conditions: read-out: EC50 for PKBA in D. discoideum; cited from earlier work
Description: (§3) Next, we tested pharmacological treatment of D. discoideum. We treated cells for 1 min with 15 μM LY294002, a PI3K inhibitor. LY294002 has been shown previously to reduce PKBA activity in D. discoideum.[53],[55]−[57] […] The magnitude of this effect was quite similar for all three peptides; percent phosphorylation of cAMP-stimulated cells decreased to 33–34% of the untreated phosphorylation levels upon LY294002 treatment.

[4] = test system: PKBA; assay: Effect of LY294002 treatment on reporter phosphorylation in cAMP-stimulated D. discoideum; assay type: cell-based; conditions: 15 μM LY294002 for 1 min before cAMP stimulation; lysed 15 s after stimulation; 1 h social development; all three reporters; n = 3 biological replicates
Description: as §3

[5] = test system: PHK5; assay: Phosphorylation of peptide substrate reporters in T. thermophila lysates (CE-LIF); assay type: biochemical; conditions: lysates from T. thermophila 2 h into conjugation, 20–30 s after 2% proteose peptone; 5 μM reporter, 2 mM ATP, room temperature, lysis buffer with phosphatase and protease inhibitors; reactions with ≤10% total phosphorylation; MEKC CE-LIF
Description: (§4) For T. thermophila lysates, mating was induced by mixing equal cell numbers of B2086.2 and CU428.2 strains that had been starved for 16 h at 30 °C in unshaken Dryl’s buffer (2 mM phosphate buffer, 2 mM citrate, 1.5 mM CaCl2). Two hours after cells were mixed, microscopy was used to confirm that >75% of cells were paired. Samples were then lysed with an equal volume of ice-cold 2× lysis buffer, before and 30 s after addition of 20% proteose peptone stock to a final concentration of 2% or other stimuli as noted.
(§5) In addition to confirming that all three reporters were phosphorylated in lysates from both cell types, we also characterized the kinetics of the phosphorylation, which varied substantially between organisms. Using reactions with ≤10% total phosphorylation, we determined the phosphorylation rate for lysates from stimulated cells in units of zeptomoles of phosphorylated product per picogram of total protein per second (zmol pg^–1 s^–1; Table 2). […] For D. discoideum, B-5/I was the next most preferred substrate. This kinetic trend is similar to that observed in human cells. Crosstide and a truncated version of B-5/I have similar values for Vmax with human Akt1, but the KM value is about 5-fold lower for Crosstide.[25] The value of Vmax has not been determined for VI–B with Akt1, but its phosphorylation rate is known to be slower than that of B-5/I.[13]

[6] = test system: intact human prostate cancer cells (LNCaP); conditions: cited from earlier work
Description: (§6) These rates are much higher than rates obtained in intact human prostate cancer cells (LNCaP, 0.04 zmol pg^–1 s^–1)[6] and pancreatic cancer cell lines (0.02–0.1 zmol pg^–1 s^–1)[28],[50] with the same reporter. Our assays were conducted in lysates containing phosphatase inhibitors, which will increase the apparent activity of PKB by removing the effects of any opposing phosphatases. Additionally, higher phosphorylation rates may arise from differing expression levels of PKB ...

[7] = test system: pancreatic cancer cell lines; conditions: intact pancreatic cancer cell lines; cited from earlier work
Description: as §6

[8] = test system: PKBA; assay: Phosphorylation of peptide substrate reporters in D. discoideum lysates (CE-LIF); assay type: biochemical; conditions: lysates from chemotaxis-competent D. discoideum 20–30 s after 1 μM cAMP stimulation; 5 μM reporter, 2 mM ATP, 0.4–0.6 mg/mL protein, room temperature, lysis buffer with phosphatase and protease inhibitors; reactions with ≤10% total phosphorylation; MEKC CE-LIF
Source text: as §5

[9] = Degradation assay in freeze-thaw lysates, T. thermophila CU428.2; assay type: in vitro ADME; conditions: T. thermophila strain CU428.2 freeze–thaw lysate, based on the first 5 min of each reaction; 3 mg/mL protein, 10 μM reporter, 25 °C, CE-LIF
Description: as §1
To study degradation kinetics, we fit the data for each full-length peptide to a first-order reaction model and determined the half-life for each peptide for three biological replicates (Figure 5b-d, Table 3). […]

[10] = test system: PHK5; assay type: cell-based; conditions: mating T. thermophila treated 20 s with 1 μM stimulus (2% for proteose peptone) prior to lysis; 15 min incubation of Crosstide in lysate; n = 2–3 biological replicates
Description: as §4, with “Two hours after cells were mixed, microscopy was used to confirm that >75% of cells were paired.” left out
The protein concentrations of lysates were determined using the fluorescamine assay described above, and lysates were diluted to the same final concentration (0.4–0.6 mg/mL) in 1× lysis buffer. […] Phosphorylation reactions were conducted in kinase buffer (25 mM MOPS, pH 7.4, 20 mM magnesium chloride, 25 mM glycerophosphate, 1 mM DTT).[41] The peptide substrate reporter was added to a final concentration of 5 μM, and the reaction was started by addition of a final concentration of 2 mM ATP. The reaction was run at room temperature and stopped by the addition of CE run buffer. Negative control experiments were performed by substituting deionized water for ATP or denaturing the lysate with heat before the addition of peptide.
Samples were analyzed using micellar electrokinetic chromatography (MEKC) in a PA-800 Plus capillary electrophoresis instrument (Beckman Coulter). […] The same buffer was used for phosphorylation assays of Crosstide. […] For all VI–B assays, the run buffer was 100 mM borate, 15 mM SDS, pH 11.4. The capillary was 50 μm diameter bare silica, 21 cm effective length with an applied potential of 400 V/cm. […] Peak integration was performed using 32 Karat (v. 10.1) software.
Cells were treated with a final concentration of 1 μM stimulus for 20 s prior to lysis.

[11] = freeze–thaw lysate of vegetative D. discoideum cells, 3 mg/mL total protein in PBS, no protease inhibitors, first-order fit, ± SD, 3 biological replicates

## C[C@H](NC(=O)[C@H](C)NC(=O)[C@H](CCCNC(=N)N)NC(=O)[C@@H]1CCCN1C(=O)[C@H](CCCNC(=N)N)NC(=O)CNC(=O)c1ccc2c(c1)C1(OC2=O)c2ccc(O)cc2Oc2cc(O)ccc21)C(=O)N[C@H](C(=O)N[C@@H](Cc1ccccc1)C(=O)N[C@@H](C)C(=O)N[C@@H](CCC(=O)O)C(=O)NCC(N)=O)[C@@H](C)O [B-5/I] (6FAM-GRPRAATFAEG-NH2)
[1]
  half-life at 10 μM: 12 ± 4 min
[2]; [11]
  half-life at 10 μM: 51 ± 4 min

## C[C@H](NC(=O)[C@H](Cc1ccccc1)NC(=O)[C@H](CO)NC(=O)[C@H](CO)NC(=O)[C@@H](NC(=O)[C@H](CCCNC(=N)N)NC(=O)[C@@H]1CCCN1C(=O)[C@H](CCCNC(=N)N)NC(=O)CNC(=O)c1ccc2c(c1)C(=O)OC21c2ccc(O)cc2Oc2cc(O)ccc21)[C@@H](C)O)C(=O)N[C@@H](CCC(=O)O)C(=O)NCC(=O)O [Crosstide] (5FAM-GRPRTSSFAEG-OH)
[1]
  half-life at 10 μM: 8 ± 1 min
[2]; [11]
  half-life at 10 μM: 117 ± 10 min

## O=c1cc(N2CCOCC2)oc2c(-c3ccccc3)cccc12 [LY294002]
[3]
  EC50: 15 µM
[4]
  percent phosphorylation of cAMP-stimulated cells, as % of the untreated phosphorylation levels: 33–34%

## C[C@H](NC(=O)[C@H](CCCNC(=N)N)N(C)C(=O)[C@@H]1CCCN1C(=O)[C@H](CCCNC(=N)N)NC(=O)CNC(=O)c1ccc2c(c1)C1(OC2=O)c2ccc(O)cc2Oc2cc(O)ccc21)C(=O)N[C@@H](Cc1ccccc1)C(=O)N[C@H](C(=O)N[C@@H](Cc1ccccc1)C(=O)N(C)[C@@H](C)C(N)=O)[C@@H](C)O [VI–B] (6FAM-GRP[NMeR]AFTF[NMeA]-NH2)
[5]
  phosphorylation rate: 4.1 ± 0.9 zmol pg^–1 s^–1
[1]; cells or culture medium
  half-life: 22 ± 4 min
[6]
  phosphorylation rate: 0.04 zmol pg^–1 s^–1
[7]
  phosphorylation rate: 0.02–0.1 zmol pg^–1 s^–1
[8]
  phosphorylation rate: 1.4 ± 0.2 zmol pg^–1 s^–1
[9]
  initial degradation rate in lysates: 5.1 ± 0.3 pmol mg^–1 s^–1
[2]; D. discoideum freeze–thaw lysate, based on the first 15 min of each reaction, pmol peptide per mg total protein per second, 3 mg/mL protein
  initial rate of fragmentation in lysates: 0.3 ± 0.1 pmol mg^–1 s^–1
[2]; cells or culture medium, freeze–thaw lysate of vegetative D. discoideum cells, 3 mg/mL total protein in PBS, no protease inhibitors, first-order fit, ± SD, 3 biological replicates
  half-life: 184 ± 65 min

## Nc1nc2c(ncn2[C@@H]2O[C@@H]3COP(=O)(O)O[C@H]3[C@H]2O)c(=O)[nH]1 [cGMP]
[10]
  change in phosphorylation activity toward Crosstide after stimulus: None of these stimuli resulted in increased phosphorylation activity

## NCCc1c[nH]cn1 [histamine]
[10]
  change in phosphorylation activity toward Crosstide after stimulus: None of these stimuli resulted in increased phosphorylation activity

## NCCc1c[nH]c2ccc(O)cc12 [serotonin]
[10]
  change in phosphorylation activity toward Crosstide after stimulus: None of these stimuli resulted in increased phosphorylation activity

## concavalin A
[10]
  change in phosphorylation activity toward Crosstide after stimulus: None of these stimuli resulted in increased phosphorylation activity

## insulin
[10]
  change in phosphorylation activity toward Crosstide after stimulus: None of these stimuli resulted in increased phosphorylation activity
